According to US20250354192A1, “METHODS FOR QUANTIFYING LIVE BACTERIA” (priority 2022, published 2025):

Columns and labels:
E. coli = test: Cell doubling control with DL-serine hydroxamate, OD600 and EDA click labeling on PIPER; assay type: cell-based
Experimental: E. coli was grown overnight at 37° C. The next day, cells were diluted into fresh media and grown for 2 hours. Next, +/−DL-serine hydroxamate (SHX; 1 mg/ml) and EDA (1 mM) were added. OD600 was taken every 20 min for 90 min. Aliquots of cells at the last time point were pelleted by centrifugation (10 min 10,000 g), and supernatant was discarded. Bacteria were washed with 1 mL of 1× PBS, pelleted by centrifugation (10 min 10,000 g), and supernatant was discarded. Cell pellets were resuspended in click reaction solution containing 200 μM copper sulfate (II) (MilliporeSigma, Burlington, MA), 128 μM THPTA ligand (Lumiprobe, Hunt Valley, MD), 2.5 mM Ascorbic acid (MilliporeSigma, Burlington, MA), 25 μM CF488 picolyl azide fluorescent dye (Biotium, Fremont, CA) and incubated for 30 min at room temperature. Cells were pelleted by centrifugation (10 min 10,000 g), supernatant was discarded, and pellets were resuspended 1 mL of 1× PBS. Finally, pellets were resuspended in PBS, mixed with ferrofluid and processed in the non-capture assay on PIPER. An automated bacterial image recognition algorithm determined labeled cell counts.

[1] = system: Bacillus, Enterococcus, Listeria, Salmonella, and Klebsiella; test: NADA-Green labeling of live versus heat-killed bacteria, PIPER non-capture assay; assay type: cell-based; conditions: 1 mM, 60 minutes; live log phase or heat-killed 15 minutes at 70° C.
Experimental: Accordingly, as shown in FIG. 2A-E, NADA-Green labels live bacteria and illustrates five (5) different strains (Bacillus, Enterococcus, Listeria, Salmonella, and Klebsiella) of log phase bacteria growing at 37° C. in brain heart infusion (BHI) media or heat-killed for 15 minutes at 70° C. were incubated with or without the fluorescent D-amino acid, NADA-Green at 1 mM (Bio-Techne, Minneapolis, MN) for 60 minutes. Cells were pelleted to remove the excess dye and resuspended in 1X phosphate buffered saline (PBS). Each sample was then split into two tubes. To one of the tubes, SYBR Green (ThermoFisher Scientific, Waltham, Massachusetts) was added in 1:100 dilution. All samples were processed on Ancera Inc.'s PIPER™ platform (“PIPER”) in a non-capture assay and analyzed by a bacterial image recognition algorithm to determine labeled cell counts. […] SYBR labeling confirmed that the dead cells remained intact on the instrument.

[2] = system: eight (8) different strains of log phase bacteria; test: Quantification of cells labeled with NADA-Green in eight strains, PIPER image recognition algorithm; assay type: cell-based; conditions: 1 mM, 60 minutes
Description: FIG. 5A depicts the quantification of cells labeled with NADA-Green in eight (8) different strains of log phase bacteria. FIG. 5B depicts the quantification of cell labelling efficiency by NADA-Green in eight (8) different strains of log phase bacteria (SE—Salmonella enterica; EC—Escherichia coli; KP—Klebsiella pneumoniae; CF—Citrobacter freundii; SA—Staphylococcus aureus; BC—Bacillus cereus; LM—Listeria monocytogenes; PA—Pseudomonas aeruginosa), determined as a percentage of NADA-labelled PIPER cell counts to the SYBR-labelled PIPER cell counts. Cells growing at 37° C. in BHI media were incubated with 1 mM NADA-Green (Bio-Techne, Minneapolis, MN) for 60 minutes. Cells were pelleted by centrifugation (10 min 10,000 g) to remove the excess dye, resuspended in 1×PBS, mixed with ferrofluid, and processed on PIPER in a non-capture assay. An automated bacterial image recognition algorithm determined labeled cell counts.

Salmonella Typhimuirum = test: Time course of labeling with NADA-Green, PIPER cartridge coated with Salmonella-specific antibody; assay type: cell-based; conditions: 1 mM, 30 minutes or 90 minutes, 37° C. in BHI
Experimental: Cells were pelleted by centrifugation (10 min 10,000 g) to remove the excess dye, resuspended in 1×PBS, mixed with ferrofluid, and processed on PIPER using a cartridge having areas coated with a Salmonella-specific antibody.

[3] = system: gram-positive and gram-negative bacteria; test: Labeling of gram-positive and gram-negative bacteria with NADA-Green, PIPER non-capture assay; assay type: cell-based, five (5) different strains of log phase bacteria; conditions: 1 mM, 90 minutes
Experimental: FIG. 4 depicts the labeling of gram-positive and gram-negative bacteria with NADA-Green with the five (5) different strains of log phase bacteria (see FIGS. 2A-E) growing at 37° C. in BHI media, and then incubated with 1 mM NADA-Green (Bio-Techne, Minneapolis, MN) for 90 minutes. Cells were pelleted by centrifugation (10 min 10,000 g) to remove the excess dye, resuspended in 1×PBS, mixed with ferrofluid, and processed on PIPER in a non-capture assay.

[4] = system: Salmonella Typhimurium, Staphylococcus aureus, or a mixture of the two strains; test: Labeling of a mixed culture with NADA-Green, PIPER non-capture assay; assay type: cell-based; conditions: 1 mM, 60 minutes, 37° C.
Experimental: Even with efficient uptake of the D-amino acid analog, gram-negative bacteria may not stain as brightly as gram-positive bacteria because gram-negative bacteria have a much thinner peptidoglycan layer. […] For example, FIGS. 12A-B depict labeling of a mixed culture with NADA-Green. A log phase culture of Salmonella Typhimurium, Staphylococcus aureus, or a mixture of the two strains was incubated at 37° C. with 1 mM NADA-Green Bio-Techne, Minneapolis, MN) for 60 minutes. Cells were pelleted by centrifugation (10 min 10,000 g) to remove the excess dye, resuspended in 1×PBS, mixed with ferrofluid, and processed on PIPER in a non-capture assay. […] Salmonella cells appear smaller and dimmer in the image than Staph. aureus cells.

[5] = system: Klebsiella pneumoniae (KP); test: APC petrifilm counts before and after 90 minutes incubation with or without chloramphenicol; assay type: cell-based; conditions: 5 μg/mL, 37° C. for 90 minutes
Experimental: (§1) Eight (8) different species of bacteria (Salmonella enterica, E. coli, Klebsiella pneumoniae, Citrobacter freundii, Staphylococcus aureus, Bacillus cereus, Listeria monocytogenes and Pseudomonas aeruginosa) were propagated from frozen stocks onto TSA plates and incubated at 37° C. for 24 hours. To induce cold-stress, a loopful of cells from each plate was transferred into 3 mL of Butterfield's Phosphate Buffer, vortexed to suspend the cells, and placed at 4° C. for 1 day. The following day, cells from each culture were pelleted for 10 minutes at 10,000 g and resuspended in BHI (FIG. 19A) or BHI containing 5 μg/mL of chloramphenicol (FIG. 19B). Each culture was normalized to an absorbance value at 600 nm (OD600) of 0.05 and loaded in triplicate onto a sterile microplate at 0.2 mL per well. The microplate was covered with BreatheEasy film and bacterial growth was monitored using a SpectroStar Nano spectrophotometer (BMG Labtech, Cary, NC) for 24 hours. During growth, the temperature was maintained at 37° C. and the plate was automatically shaken prior to OD600 readings every 10 minutes. […] A cold-stressed Klebsiella pneumoniae (KP) culture prepared as described above was transferred into BHI or BHI containing 5 μg/mL of chloramphenicol and either plated immediately or placed at 37° C. for 90 minutes. […]

[6] = system: Eight (8) different species of bacteria; test: Bacterial growth (OD600) of cold-stressed cultures in BHI with or without chloramphenicol; assay type: cell-based; conditions: 5 μg/mL in BHI, 37° C., 2-hour observation window
Experimental: Eight (8) different species of bacteria (Salmonella enterica, E. coli, Klebsiella pneumoniae, Citrobacter freundii, Staphylococcus aureus, Bacillus cereus, Listeria monocytogenes and Pseudomonas aeruginosa) were propagated from frozen stocks onto TSA plates and incubated at 37° C. for 24 hours. To induce cold-stress, a loopful of cells from each plate was transferred into 3 mL of Butterfield's Phosphate Buffer, vortexed to suspend the cells, and placed at 4° C. for 1 day. The following day, cells from each culture were pelleted for 10 minutes at 10,000 g and resuspended in BHI (FIG. 19A) or BHI containing 5 μg/mL of chloramphenicol (FIG. 19B). Each culture was normalized to an absorbance value at 600 nm (OD600) of 0.05 and loaded in triplicate onto a sterile microplate at 0.2 mL per well. The microplate was covered with BreatheEasy film and bacterial growth was monitored using a SpectroStar Nano spectrophotometer (BMG Labtech, Cary, NC) for 24 hours. During growth, the temperature was maintained at 37° C. and the plate was automatically shaken prior to OD600 readings every 10 minutes. […] OD600 observations were validated using the “gold-standard” petrifilm counts (3M) (FIG. 19C). […]

[7] = system: Klebsiella pneumoniae (KP); test: 3-step metabolic labeling with EDA with or without chloramphenicol, detection on PIPER; assay type: cell-based; conditions: 5 μg/mL, 1 mM EDA, 37° C. for 90 min
Experimental: as §1

E. coli (ATCC 35421) = conditions: 5 or 10 minutes with ethanol; cells grown in the presence of EDA
Experimental: (§2) Experimental Detail: A single colony of each indicated bacteria was inoculated into BHI and incubated overnight at 37° C. On the next day, the cells were diluted into fresh BHI and incubated for 2 h at 37° C. followed by an additional 90-minute incubation in the presence or absence of 1 mM EDA, where indicated. Where indicated, an aliquot of each culture was mixed with 96% ethanol to a final concentration of 70% (A, B) or 25% (C) and incubated for 5 to 10 min at room temperature. Cultures not exposed to ethanol were incubated for an equal amount of time in 1×PBS. Cells were pelleted by centrifugation for 10 min at 10,000 g, and supernatant containing excess EDA and ethanol was discarded. Cells were then resuspended in 300 μL of 1×PBS and pelleted again by centrifugation (10 min at 10,000 g). The 3rd step was carried out by resuspending cell pellets in 0.25 mL of 1×PBS solution containing 200 μM copper sulfate (II) (MilliporeSigma, Burlington, MA), 128 μM THPTA ligand (Lumiprobe, Hunt Valley, MD), 2.5 mM Ascorbic acid (MilliporeSigma, Burlington, MA), 25 μM CF488 picolyl azide fluorescent dye (Biotium, Fremont, CA), and 5% DMSO (Thermo Fisher Scientific, Waltham, MA). After a 30-minute incubation at room temperature, 500 μL of 1×PBS was added to each reaction, and cells were harvested by centrifugation (10 min at 10,000 g). Supernatant containing excess dye and reaction components was discarded, cells were washed with 500 μL of 1×PBS, and the cells were pelleted again by centrifugation. Finally, each cell pellet was resuspended in 0.3 mL of 1×PBS and mixed with an equal volume of ferrofluid. All samples were run on PIPER, and cell counts were generated by image analysis using an automated bacterial image recognition algorithm.

[8] = system: Salmonella enterica (ATCC 12023), Klebsiella pneumoniae (ATCC 13882), Citrobacter freundii (ATCC 8090), and E. coli (ATCC 35421); conditions: ethanol 25%, N=3
Experimental: as §2

B. cereus (ATCC 33019) = conditions: ethanol 70%, 5 to 10 min at room temperature
Experimental: as §2

## NC(CO)C(=O)NO (racemic) [DL-Serine hydroxamate, DL-serine hydroxamate]
E. coli; 1 mg/ml SHX, 1 mM EDA
  labeling with EDA and click reaction in the presence of the agent: does not prevent labeling
E. coli; 1 mg/ml, OD600 every 20 min for 90 min
  doubling of fast-growing cells (OD600): slows doubling of fast-growing cells

## N[C@H](CNc1ccc([N+](=O)[O-])c2nonc12)C(=O)O [NADA-Green]
[1]
  labeled cell counts above background noise, live versus heat-killed cells: Only live cells labeled with NADA-Green were counted above background noise
[2]
  detection of labeled strains by the image recognition algorithm: All labeled strains except Pseudomonas were detected
Salmonella Typhimuirum
  interference with cell growth or capture by the antibody: does not interfere with cell growth or capture by the antibody
[3]
  labeling of bacteria: labels both gram-positive and gram-negative bacteria
[4]
  PIPER counts in mixed culture versus individual cultures: counts in the mixed culture are approximately additive of the counts for each individual culture

## O=C(N[C@H](CO)[C@H](O)c1ccc([N+](=O)[O-])cc1)C(Cl)Cl [chloramphenicol]
[5]
  cell doubling by APC petrifilm counts: prevented cell doubling
[6]
  doubling (OD600): prevented doubling in all 8 strains
[7]
  PIPER cell counts versus sample without chloramphenicol: slight decrease in cell counts
  interference with 3-step metabolic labeling and detection on PIPER: did not interfere with 3-step metabolic labeling and detection on PIPER

## CCO [ethanol]
E. coli (ATCC 35421)
  detection after ethanol incubation prior to the click reaction: dramatically improved detection
[8]
  cell counts, cell mean intensity and variability across technical replicates: improved cell counts and/or cell mean intensity and reduced the variability across technical replicates
B. cereus (ATCC 33019)
  CuAAC labeling with or without ethanol treatment: occurred efficiently both with or without ethanol treatment
